Experiment [1] concerns NCIH460, HCT116, MDAMB-231/U 251. As to the kind of experiment: Anti-cancer screen, mean GI50 over the cell lines. In kind it is cell-based. Conditions: in µM. The method in brief: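 Growth was scored by MTT absorbance at 570 nm relative to control wells and a pre-treatment T0 reading. Compounds were tested at five final concentrations (0.01–100 µM, triplicate) for 48 h on NCIH460, HCT116 and U251 cells, each plated at 5000 cells/well 24 h before dosing.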

The test system of experiment [2] is MDAMB-231/U 251. As to the kind of experiment: Anti-cancer screen (MTT), MDAMB-231/U 251. Conditions: for CC50: 48 h, read-out: MDAMB-231/U 251 LC50; for GI50 / IC (TGI): 48 hours with compound, MTT, tested at 0.01-100 µM. Type of experiment: cell-based. The method in brief:
(§1)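 Five-point dosing (0.01, 0.1, 1, 10, 100 µM) for 48 h, with triplicate wells and a separate zero-time plate. Viability is read by MTT at 570 nm and expressed as percent growth, from which GI50, TGI and LC50 are taken.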

Experiment [3] concerns HCT116. As to the kind of experiment: Anti-cancer screen (MTT), HCT116. Type of experiment: cell-based. Conditions: Homo sapiens, HCT-116, 48 hours with compound, tested at 0.01-100 µM. The method in brief: as §1
Experiment [4] deals with HDAC. As to the kind of experiment: HDAC inhibition. To be noted: for HDAC Inhibition 1 μM: compound at 1 μM; for HDAC Inhibition 10 μM: compound at 10 μM. In kind it is biochemical.
The subject of experiment [5] is NCIH460. As to the kind of experiment: Anti-cancer screen (MTT), NCIH460. Type of experiment: cell-based. To be noted: Homo sapiens, NCI-H460, 48 hours with compound, tested at 0.01-100 µM. The method in brief:
as §1

A word on the GI50: it is the concentration giving 50% growth inhibition. As a reminder, the LC50 is the concentration lethal to half of the exposed cells or organisms. For `COC(=O)ONC(=O)c1ccc(CNC(=O)OCc2cccs2)cc1` [Example 84, 2-Thienylmethyl[4-({[(methoxycarbonyl)oxy]amino}carbonyl)benzyl]carbamate], the “Mean GI50” value in experiment [1] is given as over 100. Further, in experiment [2], the CC50 was over 100 µM, the 50% growth inhibitory concentration (GI50) turned out to be 54 µM and the IC (TGI) is over 100 µM. Besides, in experiment [3], the GI50 was over 100 µM, the IC (TGI) is over 100 µM and the LC50 (concentration giving 50% net cell kill relative to T0) was over 100 µM. Further, in experiment [4], the “HDAC Inhibition 1 μM” value is on record as 20.20 and the “HDAC Inhibition 10 μM” value is listed as 61.74. Also, in experiment [5], the GI50 came to 81 µM, the IC (TGI) was over 100 µM and the 50% lethal concentration (LC50) is over 100 µM.

In the case of `O=C(CCCCCNC(=O)Cc1csc(NC(=O)OCc2cccnc2)n1)NO` [Example 87, pyridin-3-ylmethyl[4-(2-{[6-(hydroxyamino)-6-oxohexyl]amino}-2-oxoethyl)-1,3-thiazol-2-yl]carbamate], the “Mean GI50” value in experiment [1] is over 100. For the same compound, in experiment [2], the CC50 is over 100 µM, the concentration for 50% growth inhibition (GI50) came out at 10 µM and the IC (TGI) is over 100 µM. In experiment [3], the GI50 was over 100 µM, the IC (TGI) was over 100 µM and the LC50 (concentration giving 50% net cell kill relative to T0) was over 100 µM. Besides, in experiment [4], the “HDAC Inhibition 1 μM” value is on record as 42.24 and the “HDAC Inhibition 10 μM” value is 87.80. In experiment [5], the concentration for 50% growth inhibition (GI50) is over 100 µM, the IC (TGI) is over 100 µM and the LC50 is over 100 µM.

As for `O=C(CCCCCNC(=O)Cc1csc(NC(=O)OCc2nc3ccccc3s2)n1)NO` [Example 90, 1,3-Benzothiazol-2-ylmethyl[4-(2-{[6-(hydroxyamino)-6-oxohexyl]amino}-2-oxoethyl)-1,3-thiazol-2-yl]carbamate], in experiment [1], the “Mean GI50” value is 25.35. In experiment [2], the CC50 worked out at 98 µM, the 50% growth inhibitory concentration (GI50) is 0.06 µM and the IC (TGI) was 48 µM. Also, in experiment [3], the 50% growth inhibitory concentration (GI50) amounted to 38 µM, the IC (TGI) stood at 65 µM and the LC50 (concentration giving 50% net cell kill relative to T0) is over 100 µM. Moreover, in experiment [4], the “HDAC Inhibition 1 μM” value was 61.63 and the “HDAC Inhibition 10 μM” value was determined as 98.85. Further, in experiment [5], the GI50 came to 38 µM, the IC (TGI) came out at 98 µM and the LC50 was over 100 µM.

Regarding `O=C(CCCNC(=O)Cc1csc(NC(=O)OCc2nc3ccccc3s2)n1)NO` [Example 91, 1,3-Benzothiazol-2-ylmethyl[4-(2-{[4-(hydroxyamino)-4-oxobutyl]amino}-2-oxoethyl)-1,3-thiazol-2-yl]carbamate], the “Mean GI50” value in experiment [1] worked out at 35.7. Also, in experiment [2], the CC50 was over 100 µM, the GI50 worked out at 21 µM and the IC (TGI) turned out to be 89 µM. In addition, in experiment [3], the GI50 came to 51 µM, the IC (TGI) was over 100 µM and the LC50 (concentration giving 50% net cell kill relative to T0) was over 100 µM. In experiment [4], the “HDAC Inhibition 1 μM” value amounted to 10.73 and the “HDAC Inhibition 10 μM” value worked out at 25.05. Besides, in experiment [5], the GI50 was 35 µM, the IC (TGI) is over 100 µM and the 50% lethal concentration (LC50) is over 100 µM.

In the case of `O=C(CCCCNC(=O)Cc1csc(NC(=O)OCc2nc3ccccc3s2)n1)NO` [Example 93, 1,3-Benzothiazol-2-ylmethyl[4-(2-{[5-(hydroxyamino)-5-oxopentyl]amino}-2-oxoethyl)-1,3-thiazol-2-yl]carbamate], the “Mean GI50” value in experiment [1] is reported as 32.3. Besides, in experiment [2], the CC50 is over 100 µM, the concentration for 50% growth inhibition (GI50) came to 7 µM and the IC (TGI) turned out to be 55 µM. Further, in experiment [3], the GI50 came out at 40 µM, the IC (TGI) is 88 µM and the LC50 (concentration giving 50% net cell kill relative to T0) was over 100 µM. In addition, in experiment [4], the “HDAC Inhibition 1 μM” value worked out at 26.26 and the “HDAC Inhibition 10 μM” value is recorded as 76.23. In addition, in experiment [5], the GI50 was found to be 50 µM, the IC (TGI) was over 100 µM and the LC50 is over 100 µM.

For the compound `O=C(CCCNC(=O)Cc1csc(NC(=O)OCc2nccs2)n1)NO` [Example 95, 1,3-Thiazol-2-ylmethyl[4-(2-{[4-(hydroxyamino)-4-oxobutyl]amino}-2-oxoethyl)-1,3-thiazol-2-yl]carbamate], the “Mean GI50” value in experiment [1] is over 100. Further, in experiment [2], the CC50 was over 100 µM, the 50% growth inhibitory concentration (GI50) was over 100 µM and the IC (TGI) was over 100 µM. Further, in experiment [3], the 50% growth inhibitory concentration (GI50) was over 100 µM, the IC (TGI) was over 100 µM and the LC50 (concentration giving 50% net cell kill relative to T0) is over 100 µM. In experiment [4], the “HDAC Inhibition 1 μM” value was −2.89 and the “HDAC Inhibition 10 μM” value came out at 4.19. Also, in experiment [5], the 50% growth inhibitory concentration (GI50) worked out at 93 µM, the IC (TGI) is over 100 µM and the 50% lethal concentration (LC50) was over 100 µM.

In the case of `O=C(CCCCCNC(=O)Cc1csc(NC(=O)OCc2nccs2)n1)NO` [Example 96, 1,3-Thiazol-2-ylmethyl[4-(2-{[6-(hydroxyamino)-6-oxohexyl]amino}-2-oxoethyl)-1,3-thiazol-2-yl]carbamate], the “Mean GI50” value in experiment [1] was over 100. In addition, in experiment [2], the CC50 is over 100 µM, the 50% growth inhibitory concentration (GI50) was found to be 70 µM and the IC (TGI) is over 100 µM. Also, in experiment [3], the 50% growth inhibitory concentration (GI50) is over 100 µM, the IC (TGI) was over 100 µM and the LC50 (concentration giving 50% net cell kill relative to T0) is over 100 µM. In experiment [4], the “HDAC Inhibition 1 μM” value is 52.41 and the “HDAC Inhibition 10 μM” value turned out to be 86.63. Also, in experiment [5], the 50% growth inhibitory concentration (GI50) is over 100 µM, the IC (TGI) is over 100 µM and the median lethal concentration (LC50) was over 100 µM.

Regarding `O=C(CCCNC(=O)Cc1csc(NC(=O)OCc2ccncc2)n1)NO` [Example 97, Pyridin-4-ylmethyl[4-(2-{[4-(hydroxyamino)-4-oxobutyl]amino}-2-oxoethyl)-1,3-thiazol-2-yl]carbamate], the “Mean GI50” value in experiment [1] is listed as over 100. Also, in experiment [2], the CC50 is over 100 µM, the GI50 is over 100 µM and the IC (TGI) was over 100 µM. Also, in experiment [3], the GI50 is over 100 µM, the IC (TGI) is over 100 µM and the LC50 (concentration giving 50% net cell kill relative to T0) is over 100 µM. In addition, in experiment [4], the “HDAC Inhibition 1 μM” value amounted to 5.02 and the “HDAC Inhibition 10 μM” value is reported as 5.80. Also, in experiment [5], the 50% growth inhibitory concentration (GI50) was 100 µM, the IC (TGI) was over 100 µM and the LC50 was over 100 µM.

Turning to `O=C(Cc1csc(NC(=O)c2ccc(CNC(=O)OCc3cccs3)cc2)n1)NO` [Example 101, 2-Thienylmethyl{4-[({4-[2-(hydroxyamino)-2-oxoethyl]-1,3-thiazol-2-yl}amino)carbonyl]benzyl}carbamate], the “Mean GI50” value in experiment [1] was over 100. Moreover, in experiment [2], the CC50 is over 100 µM, the 50% growth inhibitory concentration (GI50) was over 100 µM and the IC (TGI) was over 100 µM. For the same compound, in experiment [3], the GI50 was determined as 14 µM, the IC (TGI) is over 100 µM and the LC50 (concentration giving 50% net cell kill relative to T0) was over 100 µM. Moreover, in experiment [4], the “HDAC Inhibition 1 μM” value was 8.52 and the “HDAC Inhibition 10 μM” value turned out to be 45.50. In experiment [5], the GI50 was over 100 µM, the IC (TGI) is over 100 µM and the LC50 was over 100 µM.

Usually IC50 stands for the concentration at which inhibition is half-maximal. Low readings indicate higher potency, high ones lower potency. For the compound `O=C(CCCCCNC(=O)c1ccc(CNC(=O)OCc2cccs2)cc1)NO` [Example 102, 2-Thienylmethyl[4-({[6-(hydroxyamino)-6-oxohexyl]amino}carbonyl)benzyl]carbamate], the “Mean GI50” value in experiment [1] was determined as 4.9. For the same compound, in experiment [2], the CC50 turned out to be 60 µM, the 50% growth inhibitory concentration (GI50) amounted to 4.8 µM and the IC (TGI) came out at 9.5 µM. Also, in experiment [3], the concentration for 50% growth inhibition (GI50) was determined as 4.8 µM, the IC (TGI) is 10 µM and the LC50 (concentration giving 50% net cell kill relative to T0) was over 100 µM. In experiment [4], half-maximal inhibition (IC50) required 0.25 µM, the “HDAC Inhibition 1 μM” value turned out to be 79.08 and the “HDAC Inhibition 10 μM” value is given as 85.52. In experiment [5], the GI50 was found to be 5 µM, the IC (TGI) was 9.5 µM and the LC50 came to 100 µM.

In the case of `O=C(NCc1ccc(C(=O)Nc2ccccc2NC(=O)c2ccc3c(c2)OCO3)cc1)OCc1cccs1` [Example 106, 2-thienylmethyl(4-[({(2-{1,3-benzodioxol-5-ylcarbonyl}amino)-phenyl}amino)carbonyl]benzyl)carbamate], the “Mean GI50” value in experiment [1] is recorded as 2.8. In experiment [2], the CC50 is over 100 µM, the concentration for 50% growth inhibition (GI50) was determined as 5.2 µM and the IC (TGI) was over 100 µM. For the same compound, in experiment [3], the 50% growth inhibitory concentration (GI50) is over 100 µM, the IC (TGI) is over 100 µM and the LC50 (concentration giving 50% net cell kill relative to T0) is over 100 µM. Besides, in experiment [4], the “HDAC Inhibition 1 μM” value was found to be 2.1 and the “HDAC Inhibition 10 μM” value was 7.2. Further, in experiment [5], the concentration for 50% growth inhibition (GI50) worked out at 0.44 µM, the IC (TGI) was determined as 107 µM and the 50% lethal concentration (LC50) was over 100 µM.

As to `O=C(CSC(F)F)Nc1cccc(NC(=O)c2ccc(CNC(=O)OCc3cccs3)cc2)c1` [Example 108, 2-Thienylmethyl[4-({[3-({[(difluoromethyl)thio]acetyl}amino)phenyl]amino}carbonyl)benzyl]carbamate], the “Mean GI50” value in experiment [1] was over 100. In experiment [2], the CC50 is over 100 µM, the GI50 is 5 µM and the IC (TGI) came to 15 µM. In experiment [3], the GI50 stood at 100 µM, the IC (TGI) is over 100 µM and the LC50 (concentration giving 50% net cell kill relative to T0) was over 100 µM. In addition, in experiment [4], the “HDAC Inhibition 1 μM” value is on record as −8.74 and the “HDAC Inhibition 10 μM” value is given as −0.86. For the same compound, in experiment [5], the GI50 was determined as 9.5 µM, the IC (TGI) is over 100 µM and the 50% lethal concentration (LC50) is over 100 µM.

(Values after patent US20100152188A1, “Novel Heterocyclic Compounds” (priority 2005, published 2010).)
